We go through 36 molecules from patent US20150315211A1, “SMALL MOLECULES FOR THE MODULATION OF MCL-1 AND METHODS OF MODULATING CELL DEATH, CELL DIVISION, CELL DIFFERENTIATION AND METHODS OF TREATING DISORDERS” (priority 2010, published 2015).

Molecules are shown by their SMILES.

Assay [1] concerns the target MCL-1ΔNΔC (Homo sapiens, UniProt Q07820). Description: High-throughput competitive FP binding screen, FITC-MCL-1 SAHB/MCL-1ΔNΔC interaction. On the set-up: the C-terminal alpha-helix was deleted from each of these constructs; GST (N, cleaved yes); made in house. The conditions noted are these: FITC-MCL-1 SAHB/MCL-1ΔNΔC interaction pair, competitive FP screen.
Assay [2] has as its target BCL-XLΔC (Homo sapiens, UniProt Q07817). Nature of the assay: High-throughput competitive FP binding screen, FITC-BAD BH3/BCL-XLΔC interaction. The conditions noted are these: FITC-BAD BH3/BCL-XLΔC interaction pair, competitive FP screen.
Assay [3] relates to MCL-1ΔNΔC. Description: High-throughput competitive FP binding screen, FITC-MCL-1 SAHB/MCL-1ΔNΔC interaction. Conditions: selectivity for MCL-1ΔNΔC over BCL-XLΔC targeting (BCL-XL % Bound minus MCL-1 % Bound).

Chain of MCL-1ΔNΔC (Homo sapiens, UniProt Q07820) (Q07820 172-320 limits assumed, stated change not applied): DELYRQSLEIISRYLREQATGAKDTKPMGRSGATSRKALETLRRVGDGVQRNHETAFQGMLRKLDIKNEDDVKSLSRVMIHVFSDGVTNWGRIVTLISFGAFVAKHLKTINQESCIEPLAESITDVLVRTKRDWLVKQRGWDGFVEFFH
Chain of BCL-XLΔC (Q07817 1-212 limits assumed, stated change not applied): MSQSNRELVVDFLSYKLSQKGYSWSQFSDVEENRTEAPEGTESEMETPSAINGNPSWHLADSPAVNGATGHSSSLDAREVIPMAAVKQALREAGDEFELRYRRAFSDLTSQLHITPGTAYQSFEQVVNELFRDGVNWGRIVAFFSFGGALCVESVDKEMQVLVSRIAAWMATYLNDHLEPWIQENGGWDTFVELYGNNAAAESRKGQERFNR

For `Oc1c(Cl)cc(Cl)cc1Sc1cc(Cl)cc(Cl)c1Cl`, the “MCL-1% Bound” value in assay [1] was 27.2%. Also, the “BCL-XL % Bound” value in assay [2] worked out at 100.4%. The “Spec Values” in assay [3] is 73.22.

On to `CC1=C(C#N)C(O)=NC(=O)/C1=C/c1ccc(-c2cccc(C(=O)O)c2)o1`, for which the “MCL-1% Bound” value in assay [1] was found to be 36.81%. The “BCL-XL % Bound” value in assay [2] is 89.7%. In addition, the “Spec Values” in assay [3] was 52.9.

Regarding `COC(=O)c1ccc(-c2ccc(/C=C3/C(=O)N(C)C(=O)C(C#N)=C3C)o2)cc1`, in assay [1], the “MCL-1% Bound” value turned out to be 38.82%. Besides, in assay [2], the “BCL-XL % Bound” value turned out to be 91.59%. For the same molecule, in assay [3], the “Spec Values” worked out at 52.77.

Consider `CC1=C(C#N)C(=O)N(CCc2ccccc2)C(=O)/C1=C\c1ccc(-c2cccc(Cl)c2)o1`, for which the “MCL-1% Bound” value in assay [1] is given as 29.33%. The “BCL-XL % Bound” value in assay [2] was 78.77%. Also, in assay [3], the “Spec Values” worked out at 49.43.

In the case of `O=c1oc2cc(Cl)c(O)c(Cl)c2s1`, the “MCL-1% Bound” value in assay [1] is recorded as −5.219%. The “BCL-XL % Bound” value in assay [2] is listed as 104.7%. The “Spec Values” in assay [3] turned out to be 109.9.

`O=c1oc2c(-c3cccc(Cl)c3)cc(O)cc2s1`: the “MCL-1% Bound” value in assay [1] stood at 11.2%. In addition, the “BCL-XL % Bound” value in assay [2] is reported as 76.15%. The “Spec Values” in assay [3] worked out at 64.95.

Regarding `Cc1ccc(C)c(S(=O)(=O)Nc2cc(Cl)c3oc(=O)sc3c2)c1`, in assay [1], the “MCL-1% Bound” value came out at 25.38%. For the same molecule, the “BCL-XL % Bound” value in assay [2] is 86.74%. Also, in assay [3], the “Spec Values” amounted to 61.36.

As to `Cc1cccc(C(=O)Oc2ccc3oc(=O)sc3c2)c1`, the “MCL-1% Bound” value in assay [1] came out at 44.36%. Moreover, in assay [2], the “BCL-XL % Bound” value worked out at 92.24%. The “Spec Values” in assay [3] stood at 47.88.

For `Cc1ccc(C2=NC(=O)C(Cc3cc(O)c(O)c(Br)c3)S2)cc1` (stereo not drawn), the “MCL-1% Bound” value in assay [1] was found to be 2.607%. In assay [2], the “BCL-XL % Bound” value stood at 96.59%. Besides, in assay [3], the “Spec Values” is listed as 93.98.

As to `O=C1N=C(Nc2cccc(Cl)c2Cl)S/C1=C/c1ccco1`, the “MCL-1% Bound” value in assay [1] is listed as 15.57%. Also, the “BCL-XL % Bound” value in assay [2] is recorded as 89.44%. Besides, the “Spec Values” in assay [3] was found to be 73.87.

Take `CCOC(=O)C1=C(Nc2cccc(Cl)c2)S/C(=C\c2ccco2)C1=O`: in assay [1], the “MCL-1% Bound” value came out at 48.22%. In assay [2], the “BCL-XL % Bound” value came to 111.2%. Moreover, the “Spec Values” in assay [3] is 63.

Consider `CCOC(=O)C1=C(NC(=O)c2ccccc2)S/C(=C\c2ccc(C)o2)C1=O`, for which, in assay [1], the “MCL-1% Bound” value is 43.16%. Besides, the “BCL-XL % Bound” value in assay [2] was 101.2%. Further, in assay [3], the “Spec Values” is listed as 58.06.

With `CCOC(=O)c1ccc(-c2ccc(/C=C3\S/C(=N\N=C4/C(=O)Nc5ccccc54)NC3=O)o2)cc1`, in assay [1], the “MCL-1% Bound” value was 13.28%. The “BCL-XL % Bound” value in assay [2] is 66.63%. For the same molecule, the “Spec Values” in assay [3] is 53.34.

Consider `O=C1N/C(=N/c2ccccc2)S/C1=C/C=C/c1ccco1`, for which the “MCL-1% Bound” value in assay [1] worked out at 48.95%. Moreover, the “BCL-XL % Bound” value in assay [2] came to 97.59%. Further, the “Spec Values” in assay [3] came out at 48.63.

As to `COc1ccc(/C=c2\s/c(=C\C(=O)c3ccco3)[nH]c2=O)cc1O`, the “MCL-1% Bound” value in assay [1] amounted to 215.6%. Besides, the “BCL-XL % Bound” value in assay [2] stood at 263.7%. Besides, the “Spec Values” in assay [3] came out at 48.14.

As to `O=C1N/C(=N\c2ccc(F)cc2)S/C1=C/c1ccc(N2CCCCCC2)o1`, the “MCL-1% Bound” value in assay [1] was determined as 40.42%. In addition, in assay [2], the “BCL-XL % Bound” value worked out at 87.8%. For the same molecule, the “Spec Values” in assay [3] stood at 47.38.

`CCOc1ccc(NC(=O)CC2C(=O)N(Cc3ccco3)C(=S)N2CCNC(C)=O)cc1` (stereo not drawn): the “MCL-1% Bound” value in assay [1] is reported as 19.69%. Also, the “BCL-XL % Bound” value in assay [2] worked out at 102.4%. The “Spec Values” in assay [3] stood at 82.72.

With `CN(C)/C=C1\SC(=S)N(c2ccc(Br)cc2)C1=O`, in assay [1], the “MCL-1% Bound” value is 33.27%. In addition, the “BCL-XL % Bound” value in assay [2] is recorded as 112.3%. Also, in assay [3], the “Spec Values” came to 79.08.

In the case of `CC(C)C(C(=O)O)N1C(=O)/C(=C/C=C/c2ccco2)SC1=S` (stereo not drawn), the “MCL-1% Bound” value in assay [1] was found to be 26.08%. Moreover, the “BCL-XL % Bound” value in assay [2] is reported as 102.8%. For the same molecule, the “Spec Values” in assay [3] was determined as 76.69.

Consider `O=C(NN1C(=O)S/C(=C/C=C/c2ccco2)C1=O)c1ccccc1O`, for which the “MCL-1% Bound” value in assay [1] is 19.8%. In addition, the “BCL-XL % Bound” value in assay [2] is on record as 95.8%. Further, in assay [3], the “Spec Values” amounted to 76.1.

Consider `O=C1NC(=S)S/C1=C\c1ccc(-c2ccc(S(=O)(=O)N3CCOCC3)cc2)o1`, for which the “MCL-1% Bound” value in assay [1] was found to be 38.57%. In addition, in assay [2], the “BCL-XL % Bound” value worked out at 107.9%. Further, in assay [3], the “Spec Values” amounted to 69.33.

With `O=C(O)C(Cc1ccccc1)N1C(=O)/C(=C\c2ccco2)SC1=S` (stereo not drawn), the “MCL-1% Bound” value in assay [1] was 21.29%. Moreover, the “BCL-XL % Bound” value in assay [2] is 90.21%. Moreover, the “Spec Values” in assay [3] is listed as 68.92.

For `O=C1/C(=C\C=C\c2ccco2)SC(=S)N1NS(=O)(=O)c1ccccc1`, the “MCL-1% Bound” value in assay [1] was 23.0%. Also, the “BCL-XL % Bound” value in assay [2] turned out to be 89.9%. The “Spec Values” in assay [3] is given as 66.9.

`CN(C)c1ccc(/C=C2\SC(=O)N(CCC(=O)Nc3ccccc3)C2=O)cc1`: the “MCL-1% Bound” value in assay [1] was found to be 29.45%. The “BCL-XL % Bound” value in assay [2] worked out at 92.22%. Further, the “Spec Values” in assay [3] is reported as 62.76.

Consider `CCCN1C(=O)/C(=C/c2ccc(-c3cccc(C(F)(F)F)c3)o2)NC1=S`, for which, in assay [1], the “MCL-1% Bound” value stood at 27.93%. Besides, in assay [2], the “BCL-XL % Bound” value is on record as 85.65%. Moreover, the “Spec Values” in assay [3] was found to be 57.72.

Take `O=C1NC(=S)C(=C2CCCC2)S1`: in assay [1], the “MCL-1% Bound” value is recorded as 38.05%. The “BCL-XL % Bound” value in assay [2] is 93.34%. Moreover, the “Spec Values” in assay [3] was found to be 55.3.

For the molecule `O=C(CCN1C(=O)/C(=C\C=C\c2ccco2)SC1=S)Nc1ccc(C(=O)O)c(O)c1`, in assay [1], the “MCL-1% Bound” value is on record as 21.54%. Moreover, in assay [2], the “BCL-XL % Bound” value turned out to be 76.09%. Further, the “Spec Values” in assay [3] turned out to be 54.54.

For `O=C1NC(=O)/C(=C\c2cccc(C(F)(F)F)c2)S1`, in assay [1], the “MCL-1% Bound” value is recorded as 42.59%. In addition, in assay [2], the “BCL-XL % Bound” value was determined as 94.16%. Moreover, the “Spec Values” in assay [3] is recorded as 51.57.

For `CCN1C(=O)C2Cc3cc(OC)c(OC)cc3CN2C1=O` (stereo not drawn), the “MCL-1% Bound” value in assay [1] was 39.84%. Also, the “BCL-XL % Bound” value in assay [2] worked out at 91.73%. In addition, the “Spec Values” in assay [3] turned out to be 51.9.

Consider `O=C(O)CC1NC(=S)N(Cc2ccccc2)C1=O` (stereo not drawn), for which the “MCL-1% Bound” value in assay [1] stood at 48.71%. The “BCL-XL % Bound” value in assay [2] came to 98.89%. The “Spec Values” in assay [3] is 50.19.

As to `CC(C)CN1C(=O)/C(=C\c2ccc(-c3ccc(S(N)(=O)=O)cc3)o2)SC1=S`, in assay [1], the “MCL-1% Bound” value worked out at 58.51%. The “BCL-XL % Bound” value in assay [2] came out at 105.9%. In addition, in assay [3], the “Spec Values” was 47.35.

On to `CC(C)/N=c1\scc(-c2cccs2)n1/N=C/c1ccc(O)c(O)c1O`, for which the “MCL-1% Bound” value in assay [1] was −23.1%. Also, the “BCL-XL % Bound” value in assay [2] is given as 101.7%. Moreover, the “Spec Values” in assay [3] was 124.8.

Regarding `Cc1cs/c(=N\C2CCCCC2)n1/N=C/c1ccc(O)c(O)c1O`, in assay [1], the “MCL-1% Bound” value is listed as −16.27%. Moreover, the “BCL-XL % Bound” value in assay [2] was 89.95%. For the same molecule, the “Spec Values” in assay [3] was 106.2.

For the molecule `Cc1nn2c(S)nnc2nc1O`, in assay [1], the “MCL-1% Bound” value was −65.83%. In addition, the “BCL-XL % Bound” value in assay [2] was determined as 102.7%. Also, the “Spec Values” in assay [3] is on record as 168.5.

As to `CCN(CC)c1ccc2cc(C(N)=O)/c(=N\NC(=O)c3ccccc3)oc2c1`, in assay [1], the “MCL-1% Bound” value was −6.592%. The “BCL-XL % Bound” value in assay [2] was determined as 129.3%. Moreover, in assay [3], the “Spec Values” was determined as 135.9.

`COc1ccc(C(=O)COC(=O)c2c3c(nc4ccccc24)CCN(C)C3)cc1`: in assay [1], the “MCL-1% Bound” value is given as −30.96%. The “BCL-XL % Bound” value in assay [2] is listed as 88.79%. For the same molecule, in assay [3], the “Spec Values” is 119.7.
